Laboratory results published in patent US20050013852A1, “Dermal for amino laevulinic acid” (priority 2000, published 2005).

Experiments:
[1] = sedimentation (sinking speed) of ALA particles in NE solution; assay type: physicochemical; details: sieve fraction 60-90 μm
[2] = fresh ALA solution, approximate physiological value of 8, after two weeks; cited from earlier work

NCC(=O)CCC(=O)O [ALA, 5-aminolaevulinic acid]
Sinking speed of the ALA particles in solution ([1]; NE 12 % g/g in solution): 396 μm/10 s | Sinking speed of the ALA particles in solution ([1]; NE 18 % g/g in solution): 119 μm/10 s | Sinking speed of the ALA particles in solution ([1]; NE 24 % g/g in solution): 3 μm/10 s | undecomposed active substance [2]: approx. 10%
